One assay deals with T1, JAK1 (Homo sapiens, UniProt P23458).
T1 construct: full length, 25-1154; His tag (TEV-cleavable) (N, cleaved yes); made in house; host or cells: Sf21 insect cells (baculovirus)
Nature of the assay: Steady-state kinetics, kinase activity assay (KM for ATP and STAT5b peptide). The class given is biochemical. The note with it: 6 mM peptide substrate, read-out: KM, app (ATP).

The target of a further assay is JAK1 constructs (Homo sapiens, UniProt P23458). Nature of the assay: Thermal shift assay (SYPRO orange). Conditions: all constructs containing a kinase domain. The class given is binding. On the procedure:
To determine whether the V658F mutation affects protein stability we performed thermal shift assays on all the JAK constructs in the presence and absence of various cofactors that bind the kinase domain. SYPRO orange, which fluoresces when bound to hydrophobic residues, was added to a solution of protein and ligand. Fluorescence was measured as the temperature of the solution was increased, with increased fluorescence indicating the unfolding of the protein. The melting temperature (Tm) is represented by the inflection point of the fluorescence curve, with a higher Tm indicating greater thermal stability.
JAKs of 3–5 µg were diluted into the JAK Gel Filtration Buffer with 0.04× SYPRO orange, 4% (v/v) DMSO plus either 20 mM EDTA, 1 mM ATP and 2 mM MgCl2, or 6 µM itacitinib, and with or without 5 µM receptor peptide. The temperature was raised in 1 °C per min steps from 25 °C to 80 °C and fluorescence readings at 530 nm were taken at each interval. Sigmoidal curves were fitted to the fluorescence data to provide Tm values for each experiment.

Assay [1] deals with JAK1 (wild type constructs) (Homo sapiens, UniProt P23458). Nature of the assay: Kinase assay with titration of itacitinib (γ-32P-ATP, STAT5b peptide). The class given is biochemical. Conditions: all wild type constructs (kinase domain, pseudokinase-kinase, full length); Ki=IC50/(1+S/KM). The method, then:
(§1) To our knowledge, it is unknown whether small-molecule JAK inhibitors bind the wild-type and mutant forms of the enzyme with equal affinity. Therefore, the inhibition constant (Ki) for Itacitinib was determined. JAK1 activity was measured by kinase assay in the presence of increasing concentrations of Itacitinib.
(§2) The 10 µL reaction mix contained 0.5 µL 20× Kinase Assay Buffer, 1 µCi γ-^32P-ATP and varying concentrations of ATP, STAT5b peptide, and inhibitor, as described for each experiment. Reactions were started with the addition of 5 µL JAK solution, with concentration as described for each experiment. After incubation at room temperature for 20–60 min, a 3.5 µL reaction mix was spotted onto P81 phosphocellulose paper (Dr. J. Oakhill, SVIMR. Australia) and the paper was placed into 5% (v/v) H3PO4. Paper was washed 4 × 15 min with 100 mL 5% (v/v) H3PO4, followed by 1 × 1 min with acetone. Paper was dried and exposed to a phosphorimager plate overnight. The plate was scanned using a Typhoon FLA 7000 phosphorimager (GE Life Sciences, Chicago, IL, USA) and the incorporated radioactivity of each spot was quantitated using ImageQuant TL software (GE Life Sciences). The background radioactivity, quantified from an area of the paper without reaction mix, was subtracted from that for the experimental spots. […]

The next assay deals with JAK1 V658F (Homo sapiens, UniProt P23458, V658F). Described as above. The class given is biochemical. The note with it: V658F constructs (pseudokinase-kinase, full length); Ki=IC50/(1+S/KM). The method, then:
as §1, §2

A further assay concerns the target T2, JAK1 FERM-SH2 domain (Homo sapiens, UniProt P23458).
T2 construct: FERM-SH2 domains, 25-559; His tag (TEV-cleavable) (N, cleaved yes); made in house; host or cells: Sf21 insect cells (baculovirus)
Nature of the assay: Isothermal titration calorimetry of IFNλR Box1/Box2 peptide binding. The note with it: peptide of IFNλR Box1 and Box2 motifs (human residues K250 - T299). From the text:
We considered the possibility that the pseudokinase and kinase domains of JAK may affect the binding of JAK to the cytokine receptor (either directly or allosterically), as well as the possibility that the V658F mutation might exert its oncogenic effect by influencing the interaction of JAK with receptor. […] We performed isothermal titration calorimetry (ITC) to determine the affinity of a peptide representing the IFNλR Box1 and Box2 motifs (human residues K250 - T299). […] However, there was no significant effect on receptor binding between the wild-type and mutant forms of the enzyme.
(In general: ITC needs no label: the signal is the heat of the interaction.)

The test system of another assay is JAK1 wild-type and V658F. Nature of the assay: Steady-state kinetics in the presence and absence of IFNλR peptide. The class given is biochemical, human. The note with it: 2 µM IFNλR peptide. The method, then:
Receptor-binding is an important regulator of the activity of JAK in vivo and may be required in order for the V658F mutation to induce constitutive activity. Although we cannot include full-length receptor constructs in these assays we were able to include a peptide fragment that represents the box1/2 motifs. Therefore, we performed steady-state kinetics using JAK1 wild-type and V658F in the presence and absence of saturating concentrations of the IFNλR peptide.
The 10 µL reaction mix contained 0.5 µL 20× Kinase Assay Buffer, 1 µCi γ-^32P-ATP and varying concentrations of ATP, STAT5b peptide, and inhibitor, as described for each experiment. Reactions were started with the addition of 5 µL JAK solution, with concentration as described for each experiment. After incubation at room temperature for 20–60 min, a 3.5 µL reaction mix was spotted onto P81 phosphocellulose paper (Dr. J. Oakhill, SVIMR. Australia) and the paper was placed into 5% (v/v) H3PO4. […] The plate was scanned using a Typhoon FLA 7000 phosphorimager (GE Life Sciences, Chicago, IL, USA) and the incorporated radioactivity of each spot was quantitated using ImageQuant TL software (GE Life Sciences). The background radioactivity, quantified from an area of the paper without reaction mix, was subtracted from that for the experimental spots.

Another assay concerns the target IFNλR (Homo sapiens) (UniProt Q8IU57). The note with it: cited from earlier work.
Assay [2] deals with T3, full length wild type JAK1 (ΔN25) (human, UniProt P23458 25-1154).
T3 construct: human JAK1, the 'full length' construct, residues 25-1154 (the N-terminal residues deleted for expression); The results say the 25 N-terminal residues were deleted, the methods give 25-1154; also called FL WT; JAK1 FL WT; source: Sf21 insect cells, baculovirus, purified (HisTrap, TEV cleavage, Superdex 200); not shown: His tag, N-terminal, cleaved
Nature of the assay: ITC; IFNλR Box1/Box2 peptide binding to purified JAK1 constructs; three independent experiments; conditions not described in the methods. Conditions: both partners purified.

Assay [3] addresses T4, full length JAK1 V658F (ΔN25) (human, UniProt P23458 25-1154, V658F).
T4 construct: human JAK1, the 'full length' construct, residues 25-1154, with the cancer-linked mutation V658F in the pseudokinase domain; also called FL V658F; JAK1 FL V658F; source: Sf21 insect cells, baculovirus, purified (HisTrap, TEV cleavage, Superdex 200); not shown: His tag, N-terminal, cleaved
Described as above. Conditions: both partners purified.

Another assay deals with T5, JAK1 FERM-SH2 domains (human, UniProt P23458 25-559).
T5 construct: human JAK1 FERM-SH2 domains, residues 25-559; source: Sf21 insect cells, baculovirus, purified (HisTrap, TEV cleavage, Superdex 200); not shown: His tag, N-terminal, cleaved
The assay is described as above. The note with it: both partners purified.

Like-named read-outs stand apart in the source and are kept apart here.

Chain of JAK1 constructs (P23458 862-1154 limits assumed): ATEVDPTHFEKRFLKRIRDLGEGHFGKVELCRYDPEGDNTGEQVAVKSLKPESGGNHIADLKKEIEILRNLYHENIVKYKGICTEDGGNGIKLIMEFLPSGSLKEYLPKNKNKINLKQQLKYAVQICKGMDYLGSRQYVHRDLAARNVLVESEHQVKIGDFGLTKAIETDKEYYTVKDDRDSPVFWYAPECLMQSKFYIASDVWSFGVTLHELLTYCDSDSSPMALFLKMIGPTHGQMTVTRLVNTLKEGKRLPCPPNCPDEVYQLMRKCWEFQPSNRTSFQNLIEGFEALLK
Chain of IFNλR (Homo sapiens) (Q8IU57 21-520): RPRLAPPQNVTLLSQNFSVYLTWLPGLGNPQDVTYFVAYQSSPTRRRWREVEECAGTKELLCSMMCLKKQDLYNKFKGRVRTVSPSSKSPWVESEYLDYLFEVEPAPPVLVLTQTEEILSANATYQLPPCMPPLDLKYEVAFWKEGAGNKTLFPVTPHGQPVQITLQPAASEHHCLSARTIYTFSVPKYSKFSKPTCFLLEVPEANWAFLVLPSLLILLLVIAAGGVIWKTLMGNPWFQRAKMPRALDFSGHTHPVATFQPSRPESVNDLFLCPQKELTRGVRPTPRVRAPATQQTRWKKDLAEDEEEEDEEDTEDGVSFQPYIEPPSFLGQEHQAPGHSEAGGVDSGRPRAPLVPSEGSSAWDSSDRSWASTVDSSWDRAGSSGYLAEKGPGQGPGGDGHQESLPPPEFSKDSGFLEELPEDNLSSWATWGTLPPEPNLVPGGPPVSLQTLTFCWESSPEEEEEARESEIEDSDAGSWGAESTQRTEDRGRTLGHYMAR
T3 sequence (P23458 25-1154, stated change not applied): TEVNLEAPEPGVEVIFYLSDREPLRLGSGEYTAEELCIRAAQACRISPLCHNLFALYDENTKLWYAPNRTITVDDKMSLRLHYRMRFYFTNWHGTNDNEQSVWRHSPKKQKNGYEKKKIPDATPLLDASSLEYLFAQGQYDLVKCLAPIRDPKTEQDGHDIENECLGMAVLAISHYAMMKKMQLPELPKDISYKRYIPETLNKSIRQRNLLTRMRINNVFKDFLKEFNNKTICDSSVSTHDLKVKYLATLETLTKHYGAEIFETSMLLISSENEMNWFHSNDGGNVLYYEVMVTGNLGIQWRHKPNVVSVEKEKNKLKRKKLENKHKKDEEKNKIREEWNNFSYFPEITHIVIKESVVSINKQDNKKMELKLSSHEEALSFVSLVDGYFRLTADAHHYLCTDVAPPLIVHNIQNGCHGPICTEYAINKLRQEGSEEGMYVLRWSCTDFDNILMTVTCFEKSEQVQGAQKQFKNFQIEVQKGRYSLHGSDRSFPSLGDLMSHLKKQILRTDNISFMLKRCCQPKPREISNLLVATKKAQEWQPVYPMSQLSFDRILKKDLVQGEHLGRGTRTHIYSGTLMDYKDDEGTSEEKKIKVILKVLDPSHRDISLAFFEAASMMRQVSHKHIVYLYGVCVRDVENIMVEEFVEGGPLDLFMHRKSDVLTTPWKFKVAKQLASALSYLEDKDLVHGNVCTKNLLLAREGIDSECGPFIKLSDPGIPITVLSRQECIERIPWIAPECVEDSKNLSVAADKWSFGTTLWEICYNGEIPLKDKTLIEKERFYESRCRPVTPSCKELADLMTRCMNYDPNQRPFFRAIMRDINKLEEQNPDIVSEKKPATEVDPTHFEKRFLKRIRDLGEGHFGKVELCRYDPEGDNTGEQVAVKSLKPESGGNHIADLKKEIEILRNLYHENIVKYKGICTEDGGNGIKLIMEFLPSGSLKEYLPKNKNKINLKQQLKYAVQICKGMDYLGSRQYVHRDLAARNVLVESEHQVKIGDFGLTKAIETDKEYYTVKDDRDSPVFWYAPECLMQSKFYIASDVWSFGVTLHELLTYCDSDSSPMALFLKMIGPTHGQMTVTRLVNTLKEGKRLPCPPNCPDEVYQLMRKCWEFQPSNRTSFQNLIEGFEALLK
Chain of JAK1 (wild type constructs) (P23458 862-1154 limits assumed): as the sequence (P23458 862-1154 limits assumed) above
T4 sequence (P23458 25-1154 V658F): as the sequence (P23458 25-1154, stated change not applied) above, with V634F counted along it
Chain of JAK1 V658F (P23458 25-1154 V658F): as the sequence (P23458 25-1154, stated change not applied) above, with V634F counted along it
T2 sequence (P23458 25-559): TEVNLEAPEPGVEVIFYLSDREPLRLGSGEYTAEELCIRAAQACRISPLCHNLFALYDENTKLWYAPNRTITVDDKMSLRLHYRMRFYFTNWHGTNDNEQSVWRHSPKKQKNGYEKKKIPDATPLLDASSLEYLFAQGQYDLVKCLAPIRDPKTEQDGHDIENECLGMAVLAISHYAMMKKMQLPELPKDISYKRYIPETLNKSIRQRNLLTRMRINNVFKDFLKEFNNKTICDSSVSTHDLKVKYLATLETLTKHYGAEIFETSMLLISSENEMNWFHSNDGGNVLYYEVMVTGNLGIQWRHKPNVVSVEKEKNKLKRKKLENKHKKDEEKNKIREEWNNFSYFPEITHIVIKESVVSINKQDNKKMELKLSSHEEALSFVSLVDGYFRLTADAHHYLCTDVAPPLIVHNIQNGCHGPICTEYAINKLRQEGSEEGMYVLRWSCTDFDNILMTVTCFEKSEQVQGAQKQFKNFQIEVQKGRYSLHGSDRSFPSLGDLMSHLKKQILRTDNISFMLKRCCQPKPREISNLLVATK
T5 sequence (P23458 25-559): as above
Chain of JAK1 wild-type and V658F (P23458 25-559 limits assumed, stated change not applied): as the sequence (P23458 25-559) above

As usually defined, the Km is the concentration of substrate that gives half-maximal velocity. `Nc1ncnc2c1ncn2[C@@H]1O[C@H](COP(=O)(O)OP(=O)(O)OP(=O)(O)O)[C@@H](O)[C@H]1O` [ATP]: the Km at JAK1 (full-length enzyme) was 25 µM; on JAK1 (kinase domain alone), 175 µM. The Tm change entry on JAK1 constructs (1 mM ATP and 2 mM MgCl2, compared to EDTA) is listed as “increased Tm”.
The Ki is a dissociation constant, usually derived from enzyme kinetics or from competition with a known ligand. Read a low Ki as higher affinity. Regarding `N#CCC1(n2cc(-c3ncnc4[nH]ccc34)cn2)CN(C2CCN(C(=O)c3ccnc(C(F)(F)F)c3F)CC2)C1` [itacitinib], the inhibition constant Ki (in assay [1]; on JAK1 V658F) was 0.5 to 2 nM in each case. Moreover, the Tm change result at JAK1 constructs (6 µM itacitinib, compared to ATP/Mg2+) is reported as “further Tm increase”.
With “IFNλR peptide: peptide representing the IFNλR Box1 and Box2 motifs (human residues K250 - T299) (KTLMGNPWFQRAKMPRALDFSGHTHPVATFQPSRPESVNDLFLCPQKELT)”, the “affinity (ITC)” value in the assay with JAK1 FERM-SH2 domain is given as “near-identical affinity to that previously reported”. For the same molecule, the “effect on ATP KM or turnover rate” value in the assay with JAK1 wild-type and V658F is reported as “no significant differences”.
The term Kd denotes the constant that tells how readily two partners part at equilibrium. Take JAK1 FERM-SH2 (from UniProt P23458): in the assay with IFNλR (Homo sapiens), the equilibrium dissociation constant (Kd) is 71 nM.

B1: peptide representing the IFNλR Box1 and Box2 motifs (human residues K250 - T299) (peptide, UniProt Q8IU57 250-299, looked up)
peptide: KTLMGNPWFQRAKMPRALDFSGHTHPVATFQPSRPESVNDLFLCPQKELT
notes: human interferon-lambda receptor (IFNλR), intracellular Box1 and Box2 motifs, residues K250-T299; also called IFNλR peptide; interferon lambda box1-box2 peptide
Turning to B1, the binding result (in assay [2]; in [3]; with JAK1 FERM-SH2 domains) was “binds” in each case.
